Experimental data published in patent US9296759B2, “Amino-oxazine and amino-dihydrothiazine compounds as beta-secretase modulators and methods of use” (AMGEN INC., priority 2011, dated 2016).

Assays:
[1] = target: Cathepsin D (Homo sapiens (Human), UniProt P07339); experiment: In vitro enzymatic Cat D (Cathepsin D) FRET assay; type: biochemical; conditions: average IC50
Protocol: In Vitro Enzymatic Cat D (Cathepsin D) FRET (Fluorescence Resonance Energy Transfer) Assay
Recombinant CathepsinD was expressed in CHO cells. The assay buffer for CathepsinD is 0.05 M citrate pH 3.5, 10% DMSO final, 5 mM CHAPS. […] The assays are effectively started by the addition of different FRET substrates (20 nM for CathepsinD) and the combination is incubated for one hour. The FRET assay is terminated with by addition of Tris buffer, which raises the pH to neutrality, and the fluorescence is determined. The FRET substrate is a peptide with commercially available fluorophore and quencher, on opposite sides of the BACE cleavage site. […] Proteolytic cleavage of the FRET substrate releases quenching of fluorescence (CathepsinD excitation 500 nm and emission 580 nm).

[2] = target: BACE 1 (beta secretase enzyme) (Homo sapiens (Human), UniProt P56817); experiment: In vitro enzymatic BACE FRET assay; type: biochemical; conditions: average IC50
Protocol: In Vitro Enzymatic BACE FRET (Fluorescence Resonance Energy Transfer) Assay
The assay buffer used in this screen is 0.05 M acetate, pH 4.2, 10% DMSO final, 100 uM genapol (which is a nonionic detergent, below its Critical Micelle Concentration). […] This assay is effectively started by the addition of FRET substrate (50 nM) and the combination is incubated for one hour. The FRET assay is terminated with by addition of Tris buffer, which raises the pH to neutrality, and the fluorescence is determined. The FRET substrate is a peptide with commercially available fluorophore and quencher, on opposite sides of the BACE cleavage site. Proteolytic cleavage of the FRET substrate releases quenching of fluorescence (excitation […] and […]).

[3] = system: Aβ40 in conditioned medium of cells stably expressing Amyloid Precursor Protein (APP); experiment: In vitro BACE cell-based assay (HEK cell assay, Aβ40 sandwich ELISA); conditions: average IC50, Aβ40, 24 h incubation
Protocol: In Vitro BACE Cell-Based Assay
The cell-based assay measures inhibition or reduction of Aβ40 in conditioned medium of test compound treated cells expressing amyloid precursor protein.
Cells stably expressing Amyloid Precursor Protein (APP) were plated at a density of 40K cells/well in 96 well plates (Costar). The cells were cultivated for 24 hours at 37° C. and 5% CO2 in DMEM supplemented with 10% FBS. The test compounds were then added to cells in 10-point dose response concentrations with the starting concentration being either 100 μM or 10 μM. The compounds were diluted from stock solutions in DMSO and the final DMSO concentration of the test compounds on cells was 0.1%. After 24 h of incubation with the test compounds the supernatant conditioned media was collected and the Aβ 40 levels were determined using a sandwich ELISA. The IC50 of the compound was calculated from the percent of control or percent inhibition of Aβ 40 as a function of the concentration of the test compound.
The sandwich ELISA to detect Aβ 40 was performed in 96 well microtiter plates, which were pre-treated with goat anti-rabbit IgG (Pierce). The capture and detecting antibody pair that were used to detect Aβ 40 from cell supernatants were affinity purified pAb40 (Biosource) and biotinylated 6E10 (Signet Labs Inc.), respectively. The optimal concentration for the pAb40 antibody was 3 μg/ml in Superblock/TBS (Pierce) that was supplemented with 0.05% Tween 20 (Sigma).
Cellular supernatants were incubated with the capture antibody for 3 h at 4° C., followed by 3 wash steps in TBS-tween (0.05%). The detecting antibody incubation was for 2 h at 4° C., again followed by the wash steps as described previously. The final readout of the ELISA is Time-Resolved Fluorescence (counts per minute) using Delfia reagents Streptavidin-Europium and Enhancement solutions (Perkin Elmer) and the Victor 2 multilabel counter (Perkin Elmer).

BACE 1 (beta secretase enzyme), sequence (P56817 46-501): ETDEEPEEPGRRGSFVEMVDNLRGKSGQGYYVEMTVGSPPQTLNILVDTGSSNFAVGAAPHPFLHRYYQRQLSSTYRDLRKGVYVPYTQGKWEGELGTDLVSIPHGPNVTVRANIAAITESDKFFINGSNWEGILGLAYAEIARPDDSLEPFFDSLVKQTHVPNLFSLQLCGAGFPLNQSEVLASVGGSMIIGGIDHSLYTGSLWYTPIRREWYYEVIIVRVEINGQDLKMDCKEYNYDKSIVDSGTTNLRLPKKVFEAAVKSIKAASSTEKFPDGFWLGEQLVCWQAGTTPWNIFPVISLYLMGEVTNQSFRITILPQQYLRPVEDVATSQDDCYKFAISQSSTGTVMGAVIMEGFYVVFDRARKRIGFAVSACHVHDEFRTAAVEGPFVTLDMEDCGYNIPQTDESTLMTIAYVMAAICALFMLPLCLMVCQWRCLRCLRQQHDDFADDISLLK
Cathepsin D, sequence (P07339 65-412, species assumed): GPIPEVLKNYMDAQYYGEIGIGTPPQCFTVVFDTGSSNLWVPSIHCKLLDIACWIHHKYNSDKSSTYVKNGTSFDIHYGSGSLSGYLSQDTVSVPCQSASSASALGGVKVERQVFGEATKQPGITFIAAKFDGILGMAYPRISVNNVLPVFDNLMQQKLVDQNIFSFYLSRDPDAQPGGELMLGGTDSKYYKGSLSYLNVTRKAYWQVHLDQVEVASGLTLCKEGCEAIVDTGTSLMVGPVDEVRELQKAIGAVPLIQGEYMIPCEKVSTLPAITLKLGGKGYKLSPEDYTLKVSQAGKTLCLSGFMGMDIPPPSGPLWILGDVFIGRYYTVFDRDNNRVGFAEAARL

Row | IC50 [1] | IC50 [2] | IC50 ([3]; Homo sapiens, HEK293) | IC50 [3] | Compound
1 | 255000 nM | 9.3 nM | 0.4 nM | – | NC1=N[C@@]2(CCO1)c1cc(NC(=O)c3ccc(F)cn3)ccc1Oc1c2cc(C2=CCCOC2)nc1F [Example 83, N-((5S)-2′-amino-3-(5,6-dihydro-2H-pyran-3-yl)-1-fluoro-5′,6′-dihydrospiro[chromeno[2,3-c]pyridine-5,4′-[1,3]oxazin]-7-yl)-5-fluoro-2-pyridinecarboxamide]
2 | > 400000 nM | 6.2 nM | 167 nM | – | COc1cnc(C(=O)Nc2ccc3c(c2)[C@@]2(CCSC(N)=N2)c2cc(Cl)nc(F)c2O3)cn1 [Example 56, N-((5S)-2′-amino-3-chloro-1-fluoro-5′,6′-dihydrospiro[chromeno[2,3-c]pyridine-5,4′-[1,3]thiazin]-7-yl)-5-methoxy-2-pyrazinecarboxamide]
3 | 400000 nM | 2.9 nM | 0.5 nM | – | COc1cnc(C(=O)Nc2ccc3c(c2)[C@@]2(CCOC(N)=N2)c2cc(-c4ccnc(F)c4)ncc2O3)cn1 [Example 93, N-((5S)-2′-amino-3-(2-fluoro-4-pyridinyl)-5′,6′-dihydrospiro[chromeno[2,3-c]pyridine-5,4′-[1,3]oxazin]-7-yl)-5-methoxy-2-pyrazinecarboxamide]
4 | 400000 nM | 7290 nM | – | 3510 nM | COc1cc(F)c2c(c1)[C@]1(CCOC(N)=N1)c1cc(Nc3ncccc3OCc3ccccc3)ccc1O2 [Example 57, (4S)-N~2~′-(3-(benzyloxy)-2-pyridinyl)-5′-fluoro-7′-methoxy-5,6-dihydrospiro[1,3-oxazine-4,9′-xanthene]-2,2′-diamine]
5 | 400000 nM | 1.6 nM | 0.7 nM | – | NC1=N[C@@]2(CCO1)c1cc(NC(=O)c3ccc(Cl)cn3)ccc1Oc1cnc(-c3ccnc(F)c3)cc12 [Example 94, N-((5S)-2′-amino-3-(2-fluoro-4-pyridinyl)-5′,6′-dihydrospiro[chromeno[2,3-c]pyridine-5,4′-[1,3]oxazin]-7-yl)-5-chloro-2-pyridinecarboxamide]
6 | 311000 nM | 2.6 nM | 0.6 nM | – | NC1=N[C@@]2(CCS1)c1cc(NC(=O)c3ncc(Cl)cc3F)ccc1Oc1c2cc(C2=CCOCC2)nc1F [Example 119, N-((5S)-2′-amino-3-(3,6-dihydro-2H-pyran-4-yl)-1-fluoro-5′,6′-dihydrospiro[chromeno[2,3-c]pyridine-5,4′-[1,3]thiazin]-7-yl)-5-chloro-3-fluoro-2-pyridinecarboxamide]
7 | 452000 nM | 12 nM | 1.2 nM | – | COc1cnc(C(=O)Nc2ccc3c(c2)[C@@]2(CCOC(N)=N2)c2cc(C#CC(C)(C)C)ncc2O3)cn1 [Example 86, N-((5S)-2′-amino-3-(3,3-dimethyl-1-butyn-1-yl)-5′,6′-dihydrospiro[chromeno[2,3-c]pyridine-5,4′-[1,3]oxazin]-7-yl)-5-methoxy-2-pyrazinecarboxamide]
8 | > 400000 nM | 120 nM | 125 nM | – | NC1=N[C@@]2(CCO1)c1cc(NC(=O)c3ccc(Cl)cc3F)ccc1Oc1ncc(Br)cc12 [Example 37, N-((5S)-2′-amino-3-bromo-5′,6′-dihydrospiro[chromeno[2,3-b]pyridine-5,4′-[1,3]oxazin]-7-yl)-4-chloro-2-fluorobenzamide]
9 | 518000 nM | 0.6 nM | 0.4 nM | – | N#Cc1ccc(C(=O)Nc2ccc3c(c2)[C@@]2(CCOC(N)=N2)c2cc(-c4ccnc(F)c4)nc(F)c2O3)nc1 [Example 100, N-((5S)-2′-amino-1-fluoro-3-(2-fluoro-4-pyridinyl)-5′,6′-dihydrospiro[chromeno[2,3-c]pyridine-5,4′-[1,3]oxazin]-7-yl)-5-cyano-2-pyridinecarboxamide]
10 | 147000 nM | 10.8 nM | 4.6 nM | – | COc1cc(F)c2c(c1)[C@]1(CCOC(N)=N1)c1cc(NC(=O)c3ccc(C#N)cn3)ccc1O2 [Example 74, N-((4S)-2-amino-5′-fluoro-7′-methoxy-5,6-dihydrospiro[1,3-oxazine-4,9′-xanthen]-2′-yl)-5-cyano-2-pyridinecarboxamide]
11 | 323000 nM | 16.1 nM | 184 nM | – | NC1=N[C@@]2(CCO1)c1cc(NC(=O)c3cnc(Cl)cn3)ccc1Oc1c2cc(Cl)nc1F [Example 49, N-((5S)-2′-amino-3-chloro-1-fluoro-5′,6′-dihydrospiro[chromeno[2,3-c]pyridine-5,4′-[1,3]oxazin]-7-yl)-5-chloro-2-pyrazinecarboxamide]
12 | 400000 nM | 28.4 nM | 64.6 nM | – | COc1cnc(C(=O)Nc2ccc3c(c2)[C@@]2(CCSC(N)=N2)c2cc(O)cc(F)c2O3)cn1 [Example 109, N-((4S)-2-amino-5′-fluoro-7′-hydroxy-5,6-dihydrospiro[1,3-thiazine-4,9′-xanthen]-2′-yl)-5-methoxy-2-pyrazinecarboxamide]
13 | 133000 nM | 0.6 nM | 0.082 nM | – | N#Cc1ccc(C(=O)Nc2ccc3c(c2)[C@@]2(CCOC(N)=N2)c2cc(-c4cncc(F)c4)nc(F)c2O3)nc1 [Example 69, N-((5S)-2′-amino-1-fluoro-3-(5-fluoro-3-pyridinyl)-5′,6′-dihydrospiro[chromeno[2,3-c]pyridine-5,4′-[1,3]oxazin]-7-yl)-5-cyano-2-pyridinecarboxamide]
14 | > 400000 nM | 12.9 nM | 22.7 nM | – | COc1nc(C2CC2)cc2c1Oc1ccc(NC(=O)c3ccc(Cl)cn3)cc1[C@@]21CCOC(N)=N1 [Example 53, N-((5S)-2′-amino-3-cyclopropyl-1-methoxy-5′,6′-dihydrospiro[chromeno[2,3-c]pyridine-5,4′-[1,3]oxazin]-7-yl)-5-chloro-2-pyridinecarboxamide]
15 | 400000 nM | 38.6 nM | 9.9 nM | – | NC1=N[C@@]2(CCO1)c1cc(NC(=O)c3ccc(Cl)cn3)ccc1Oc1cnc(Cl)cc12 [Example 79, N-((5S)-2′-amino-3-chloro-5′,6′-dihydrospiro[chromeno[2,3-c]pyridine-5,4′-[1,3]oxazin]-7-yl)-5-chloro-2-pyridinecarboxamide]
16 | 400000 nM | 69.6 nM | – | 64.2 nM | CCOc1cccnc1Nc1ccc2c(c1)[C@@]1(CCOC(N)=N1)c1cc(OC)cc(F)c1O2 [Example 31, (4S)-N~2~′-(3-ethoxy-2-pyridinyl)-5′-fluoro-7′-methoxy-5,6-dihydrospiro[1,3-oxazine-4,9′-xanthene]-2,2′-diamine]
17 | 400000 nM | 3.1 nM | 3.8 nM | – | COc1cnc(C(=O)Nc2ccc3c(c2)[C@@]2(CCSC(N)=N2)c2cc(-c4ccnc(F)c4)nc(F)c2O3)cn1 [Example 114, N-((5S)-2′-amino-1-fluoro-3-(2-fluoro-4-pyridinyl)-5′,6′-dihydrospiro[chromeno[2,3-c]pyridine-5,4′-[1,3]thiazin]-7-yl)-5-methoxy-2-pyrazinecarboxamide]
18 | 400000 nM | 1.7 nM | 1.1 nM | – | COc1cnc(C(=O)Nc2ccc3c(c2)[C@@]2(CCSC(N)=N2)c2cc(C4=CCOCC4)ncc2O3)cn1 [Example 103, N-((5S)-2′-amino-3-(3,6-dihydro-2H-pyran-4-yl)-5′,6′-dihydrospiro[chromeno[2,3-c]pyridine-5,4′-[1,3]thiazin]-7-yl)-5-methoxy-2-pyrazinecarboxamide]
19 | > 1650 nM | 5.1 nM | 3.3 nM | – | NC1=N[C@@]2(CCO1)c1cc(NC(=O)c3ccc(Cl)cn3)ccc1Oc1ncc(C3=CCCOC3)cc12 [Example 35, N-((5S)-2′-amino-3-(5,6-dihydro-2H-pyran-3-yl)-5′,6′-dihydrospiro[chromeno[2,3-b]pyridine-5,4′-[1,3]oxazin]-7-yl)-5-chloro-2-pyridinecarboxamide]
